Source: ChEMBL document CHEMBL3991601, “The target landscape of clinical kinase drugs” (Science, 2017)
Activity calls are given as the source filed them. Cut-off read from the data, not from the text of the source, for most assays here: actives have a measured Kd and inactives only a lower limit.

Columns and labels:
[1] = target: T1, Serine/threonine-protein kinase ULK3 (Homo sapiens, UniProt Q6PHR2)
T1 sequence (Q6PHR2 whole entry): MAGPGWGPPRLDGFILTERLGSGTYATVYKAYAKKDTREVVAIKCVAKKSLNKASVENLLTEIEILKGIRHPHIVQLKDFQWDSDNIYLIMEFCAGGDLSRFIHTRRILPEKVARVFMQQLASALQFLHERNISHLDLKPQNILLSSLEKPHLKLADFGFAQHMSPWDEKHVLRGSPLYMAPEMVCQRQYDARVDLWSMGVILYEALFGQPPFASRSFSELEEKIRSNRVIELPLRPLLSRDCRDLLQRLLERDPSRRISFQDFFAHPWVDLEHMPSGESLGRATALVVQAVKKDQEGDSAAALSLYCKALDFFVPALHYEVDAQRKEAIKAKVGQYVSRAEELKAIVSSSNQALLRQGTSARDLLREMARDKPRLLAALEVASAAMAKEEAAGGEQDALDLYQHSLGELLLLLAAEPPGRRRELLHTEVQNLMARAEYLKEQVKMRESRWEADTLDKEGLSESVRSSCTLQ

Myosin-14 = Myosin-14 (Homo sapiens, UniProt Q7Z406)
Myosin-14, sequence (Q7Z406 whole entry): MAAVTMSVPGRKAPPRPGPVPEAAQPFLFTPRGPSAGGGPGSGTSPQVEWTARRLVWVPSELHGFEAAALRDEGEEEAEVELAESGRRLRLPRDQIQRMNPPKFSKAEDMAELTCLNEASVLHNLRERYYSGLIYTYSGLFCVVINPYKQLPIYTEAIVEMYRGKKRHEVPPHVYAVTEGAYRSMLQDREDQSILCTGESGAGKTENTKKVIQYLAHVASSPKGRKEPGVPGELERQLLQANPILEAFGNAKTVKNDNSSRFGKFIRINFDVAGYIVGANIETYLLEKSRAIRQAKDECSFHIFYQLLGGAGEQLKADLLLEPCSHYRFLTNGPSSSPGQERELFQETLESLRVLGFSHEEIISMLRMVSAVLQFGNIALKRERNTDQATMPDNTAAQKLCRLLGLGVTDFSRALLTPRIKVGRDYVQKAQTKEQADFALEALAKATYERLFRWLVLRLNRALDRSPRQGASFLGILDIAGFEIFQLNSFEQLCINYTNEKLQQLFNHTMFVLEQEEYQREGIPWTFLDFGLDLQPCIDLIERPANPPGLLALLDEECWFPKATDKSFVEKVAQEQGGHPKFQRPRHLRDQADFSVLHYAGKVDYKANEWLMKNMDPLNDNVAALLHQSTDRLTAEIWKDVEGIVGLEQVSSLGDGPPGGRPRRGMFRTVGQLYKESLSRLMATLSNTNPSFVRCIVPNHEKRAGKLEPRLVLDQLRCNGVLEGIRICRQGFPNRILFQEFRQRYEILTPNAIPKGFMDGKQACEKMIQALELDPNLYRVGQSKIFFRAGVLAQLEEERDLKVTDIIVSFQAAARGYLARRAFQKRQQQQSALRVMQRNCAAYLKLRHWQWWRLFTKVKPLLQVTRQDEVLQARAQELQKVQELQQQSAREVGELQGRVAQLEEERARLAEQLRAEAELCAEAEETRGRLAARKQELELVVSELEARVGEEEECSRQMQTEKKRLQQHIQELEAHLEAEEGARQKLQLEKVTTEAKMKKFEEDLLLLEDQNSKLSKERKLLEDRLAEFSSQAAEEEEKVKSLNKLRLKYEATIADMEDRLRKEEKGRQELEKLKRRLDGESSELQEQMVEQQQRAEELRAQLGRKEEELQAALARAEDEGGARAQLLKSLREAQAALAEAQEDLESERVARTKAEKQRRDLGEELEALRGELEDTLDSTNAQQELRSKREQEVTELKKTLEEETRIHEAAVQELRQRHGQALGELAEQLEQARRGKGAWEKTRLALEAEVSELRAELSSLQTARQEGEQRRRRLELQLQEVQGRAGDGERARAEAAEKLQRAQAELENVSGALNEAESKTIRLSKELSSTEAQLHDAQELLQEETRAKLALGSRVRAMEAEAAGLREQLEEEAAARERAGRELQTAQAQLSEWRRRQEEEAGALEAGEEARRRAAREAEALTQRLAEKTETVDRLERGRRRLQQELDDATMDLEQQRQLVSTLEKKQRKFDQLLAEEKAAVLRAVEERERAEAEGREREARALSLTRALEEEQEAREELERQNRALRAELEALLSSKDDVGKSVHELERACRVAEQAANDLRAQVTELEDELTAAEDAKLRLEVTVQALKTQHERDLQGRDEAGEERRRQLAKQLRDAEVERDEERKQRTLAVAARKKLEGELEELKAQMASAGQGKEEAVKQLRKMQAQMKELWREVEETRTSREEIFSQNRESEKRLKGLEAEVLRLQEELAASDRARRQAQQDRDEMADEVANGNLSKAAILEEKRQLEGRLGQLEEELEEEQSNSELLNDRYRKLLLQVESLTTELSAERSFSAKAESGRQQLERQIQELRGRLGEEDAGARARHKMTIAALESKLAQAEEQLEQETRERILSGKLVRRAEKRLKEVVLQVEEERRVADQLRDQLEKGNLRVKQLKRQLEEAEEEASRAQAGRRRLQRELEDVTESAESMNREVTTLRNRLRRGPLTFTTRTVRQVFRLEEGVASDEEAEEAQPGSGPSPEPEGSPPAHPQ

[2] = target: Calcium/calmodulin-dependent protein kinase type II subunit gamma (Homo sapiens, UniProt Q13555)
Calcium/calmodulin-dependent protein kinase type II subunit gamma, sequence (Q13555 whole entry): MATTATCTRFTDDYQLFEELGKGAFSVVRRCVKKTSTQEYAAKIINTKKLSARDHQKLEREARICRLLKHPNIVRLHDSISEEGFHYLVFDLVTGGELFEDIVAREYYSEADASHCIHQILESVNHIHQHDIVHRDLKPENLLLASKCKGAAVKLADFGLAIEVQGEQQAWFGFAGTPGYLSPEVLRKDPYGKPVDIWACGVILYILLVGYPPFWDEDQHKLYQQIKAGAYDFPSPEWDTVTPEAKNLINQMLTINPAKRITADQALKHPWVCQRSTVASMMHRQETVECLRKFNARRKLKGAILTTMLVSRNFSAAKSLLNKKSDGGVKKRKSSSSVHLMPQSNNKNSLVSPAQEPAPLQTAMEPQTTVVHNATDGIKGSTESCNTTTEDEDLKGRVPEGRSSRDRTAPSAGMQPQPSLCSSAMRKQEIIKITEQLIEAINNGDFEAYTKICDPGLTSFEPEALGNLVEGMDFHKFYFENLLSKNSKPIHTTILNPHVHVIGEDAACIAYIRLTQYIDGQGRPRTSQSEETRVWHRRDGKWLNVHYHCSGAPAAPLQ

[3] = target: Cyclin-dependent kinase 1 (Homo sapiens, UniProt P06493)
Cyclin-dependent kinase 1, sequence (P06493 whole entry): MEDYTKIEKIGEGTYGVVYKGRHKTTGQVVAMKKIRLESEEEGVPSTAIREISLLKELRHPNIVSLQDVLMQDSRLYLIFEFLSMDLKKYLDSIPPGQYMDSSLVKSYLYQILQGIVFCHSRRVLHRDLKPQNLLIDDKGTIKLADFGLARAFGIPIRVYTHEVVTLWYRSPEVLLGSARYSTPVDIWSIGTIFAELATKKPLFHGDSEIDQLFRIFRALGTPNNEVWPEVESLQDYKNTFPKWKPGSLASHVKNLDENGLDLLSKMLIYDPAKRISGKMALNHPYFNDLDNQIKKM

[4] = target: Serine/threonine-protein kinase SIK2 (Homo sapiens, UniProt Q9H0K1)
[5] = target: T2, Ribosyldihydronicotinamide dehydrogenase [quinone] (Homo sapiens, UniProt P16083)
T2 sequence (P16083 whole entry): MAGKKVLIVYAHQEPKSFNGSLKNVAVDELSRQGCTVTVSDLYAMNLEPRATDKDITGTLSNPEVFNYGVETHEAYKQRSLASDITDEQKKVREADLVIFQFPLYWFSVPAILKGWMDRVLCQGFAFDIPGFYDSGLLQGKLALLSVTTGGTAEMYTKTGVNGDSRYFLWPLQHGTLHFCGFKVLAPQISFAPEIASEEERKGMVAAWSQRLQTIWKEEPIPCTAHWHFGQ

[6] = target: Insulin-like growth factor 1 receptor (Homo sapiens, UniProt P08069)
[7] = target: Mitogen-activated protein kinase kinase kinase 4 (Homo sapiens, UniProt Q9Y6R4)
Mitogen-activated protein kinase kinase kinase 4, sequence (Q9Y6R4 whole entry): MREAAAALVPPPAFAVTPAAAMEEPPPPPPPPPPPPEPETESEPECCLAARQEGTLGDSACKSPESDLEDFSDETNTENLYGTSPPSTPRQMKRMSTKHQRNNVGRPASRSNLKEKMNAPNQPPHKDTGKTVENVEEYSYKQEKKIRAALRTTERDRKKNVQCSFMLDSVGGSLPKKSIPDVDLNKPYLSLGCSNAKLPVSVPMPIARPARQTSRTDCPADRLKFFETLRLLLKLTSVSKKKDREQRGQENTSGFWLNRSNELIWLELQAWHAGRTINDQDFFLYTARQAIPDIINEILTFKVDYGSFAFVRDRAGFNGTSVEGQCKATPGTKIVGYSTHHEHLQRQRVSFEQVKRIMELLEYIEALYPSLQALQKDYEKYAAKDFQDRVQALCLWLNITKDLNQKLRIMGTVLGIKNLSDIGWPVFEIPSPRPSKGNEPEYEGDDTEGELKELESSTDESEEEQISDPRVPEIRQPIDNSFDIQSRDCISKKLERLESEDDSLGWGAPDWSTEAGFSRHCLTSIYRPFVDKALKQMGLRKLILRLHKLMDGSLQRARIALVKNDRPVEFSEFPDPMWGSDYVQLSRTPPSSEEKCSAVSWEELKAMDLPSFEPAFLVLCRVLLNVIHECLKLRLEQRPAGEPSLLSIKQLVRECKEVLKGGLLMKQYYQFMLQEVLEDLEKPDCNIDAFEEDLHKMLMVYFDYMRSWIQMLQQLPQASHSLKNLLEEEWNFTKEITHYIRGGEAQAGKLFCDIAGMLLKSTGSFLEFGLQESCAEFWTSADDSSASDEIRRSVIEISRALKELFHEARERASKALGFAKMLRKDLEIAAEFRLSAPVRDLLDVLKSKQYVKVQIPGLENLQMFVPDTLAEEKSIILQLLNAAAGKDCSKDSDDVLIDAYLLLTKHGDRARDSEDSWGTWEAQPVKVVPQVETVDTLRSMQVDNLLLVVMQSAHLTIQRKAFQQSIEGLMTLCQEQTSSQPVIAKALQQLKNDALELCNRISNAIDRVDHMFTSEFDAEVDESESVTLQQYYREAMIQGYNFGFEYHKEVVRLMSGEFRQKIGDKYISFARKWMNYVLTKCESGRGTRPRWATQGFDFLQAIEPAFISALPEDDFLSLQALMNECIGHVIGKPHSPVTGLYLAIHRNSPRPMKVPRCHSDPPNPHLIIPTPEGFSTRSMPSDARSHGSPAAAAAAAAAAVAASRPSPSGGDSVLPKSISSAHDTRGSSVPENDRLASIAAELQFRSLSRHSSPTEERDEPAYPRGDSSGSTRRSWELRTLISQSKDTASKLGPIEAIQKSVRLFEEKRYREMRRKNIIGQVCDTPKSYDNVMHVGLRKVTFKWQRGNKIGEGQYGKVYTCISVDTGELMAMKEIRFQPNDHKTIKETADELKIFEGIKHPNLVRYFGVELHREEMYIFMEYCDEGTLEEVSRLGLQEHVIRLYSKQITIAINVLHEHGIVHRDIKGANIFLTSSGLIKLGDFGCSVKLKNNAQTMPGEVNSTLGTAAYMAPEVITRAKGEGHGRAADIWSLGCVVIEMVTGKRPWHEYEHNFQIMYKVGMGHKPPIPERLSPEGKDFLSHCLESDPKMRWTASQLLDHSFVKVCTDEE

Insulin receptor = Insulin receptor (Homo sapiens, UniProt P06213)
[8] = target: T3, MAP kinase-activated protein kinase 5 (Homo sapiens, UniProt Q8IW41)
T3 sequence (Q8IW41 whole entry): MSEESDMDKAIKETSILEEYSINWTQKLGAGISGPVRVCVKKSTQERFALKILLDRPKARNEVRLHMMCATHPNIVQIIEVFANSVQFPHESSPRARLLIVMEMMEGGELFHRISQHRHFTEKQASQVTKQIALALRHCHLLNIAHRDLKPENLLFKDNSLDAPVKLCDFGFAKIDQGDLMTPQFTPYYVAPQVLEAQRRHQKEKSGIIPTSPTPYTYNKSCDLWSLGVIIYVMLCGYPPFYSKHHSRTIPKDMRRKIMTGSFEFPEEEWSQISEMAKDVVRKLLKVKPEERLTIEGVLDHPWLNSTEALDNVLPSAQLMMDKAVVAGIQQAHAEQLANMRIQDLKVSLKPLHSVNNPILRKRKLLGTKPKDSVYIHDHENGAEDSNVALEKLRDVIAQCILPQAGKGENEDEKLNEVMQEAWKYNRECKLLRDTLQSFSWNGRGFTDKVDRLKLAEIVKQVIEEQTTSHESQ

[9] = target: T4, Serine/threonine-protein kinase Nek9 (Homo sapiens, UniProt Q8TD19)
T4 sequence (Q8TD19 whole entry): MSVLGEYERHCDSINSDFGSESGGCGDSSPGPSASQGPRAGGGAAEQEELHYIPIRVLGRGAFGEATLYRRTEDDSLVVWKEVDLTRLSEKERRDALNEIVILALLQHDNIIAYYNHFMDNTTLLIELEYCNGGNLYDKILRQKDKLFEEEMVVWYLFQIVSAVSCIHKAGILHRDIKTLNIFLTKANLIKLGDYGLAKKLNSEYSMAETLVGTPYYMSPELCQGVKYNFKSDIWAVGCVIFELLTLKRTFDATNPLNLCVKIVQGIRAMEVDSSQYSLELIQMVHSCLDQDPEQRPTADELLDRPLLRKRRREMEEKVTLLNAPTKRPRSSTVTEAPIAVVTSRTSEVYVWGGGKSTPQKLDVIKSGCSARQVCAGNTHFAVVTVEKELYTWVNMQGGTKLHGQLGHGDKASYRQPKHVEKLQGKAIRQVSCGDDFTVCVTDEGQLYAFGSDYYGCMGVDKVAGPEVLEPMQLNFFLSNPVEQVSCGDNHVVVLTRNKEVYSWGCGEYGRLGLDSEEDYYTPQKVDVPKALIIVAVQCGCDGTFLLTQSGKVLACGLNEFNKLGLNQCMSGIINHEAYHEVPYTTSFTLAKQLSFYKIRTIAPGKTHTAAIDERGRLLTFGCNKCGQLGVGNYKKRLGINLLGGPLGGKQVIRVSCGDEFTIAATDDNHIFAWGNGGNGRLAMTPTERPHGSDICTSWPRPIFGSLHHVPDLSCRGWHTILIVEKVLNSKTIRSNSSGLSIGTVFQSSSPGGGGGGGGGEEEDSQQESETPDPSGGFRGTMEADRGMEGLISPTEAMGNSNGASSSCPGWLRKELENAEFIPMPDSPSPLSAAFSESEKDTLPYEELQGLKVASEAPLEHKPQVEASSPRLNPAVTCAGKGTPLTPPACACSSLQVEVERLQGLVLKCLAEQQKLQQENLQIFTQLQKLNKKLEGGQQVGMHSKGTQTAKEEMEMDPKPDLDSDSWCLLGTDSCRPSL

Measured: Kd
Note: in the data inactive means no Kd found up to 30 µM.

Cn1cc(-c2[nH]c3cc(NC(=O)[C@H](N)C4CCCCC4)cc4c3c2C=NNC4=O)cn1
inactive: Myosin-14 > 30 µM | [2] > 30 µM | [3] > 30 µM | [5] > 30 µM | [6] > 30 µM | [7] > 30 µM | Insulin receptor > 30 µM | [8] > 30 µM | [9] > 30 µM
active: [1] 1.17 µM | [4] 0.047 µM

C=CCn1c(=O)c2cnc(Nc3ccc(N4CCN(C)CC4)cc3)nc2n1-c1cccc(C(C)(C)O)n1 [ADAVOSERTIB]
inactive: [1] > 30 µM | Myosin-14 > 30 µM | [2] > 30 µM | [3] > 30 µM | [4] > 30 µM | [5] > 30 µM | Insulin receptor > 30 µM | [8] > 30 µM | [9] > 30 µM
active: [7] 0.052 µM

CN(C)C/C=C/C(=O)Nc1cc2c(Nc3ccc(F)c(Cl)c3)ncnc2cc1O[C@H]1CCOC1 [AFATINIB]
inactive: Myosin-14 > 30 µM | [3] > 30 µM | [5] > 30 µM

CCN(CCCOc1ccc2c(Nc3cc(CC(=O)Nc4cccc(F)c4)n[nH]3)ncnc2c1)CCOP(=O)(O)O [BARASERTIB]
inactive: [1] > 30 µM | Myosin-14 > 30 µM | [2] > 30 µM | [3] > 30 µM | [5] > 30 µM | [7] > 30 µM | Insulin receptor > 30 µM | [8] > 30 µM | [9] > 30 µM

C[C@@]1(C(=O)Nc2ccc(F)nc2)CCCN1c1nc(Nc2cc(C3CC3)n[nH]2)c2cccn2n1 [BMS-754807]
inactive: [3] > 30 µM | [5] > 30 µM

COc1cc2c(Oc3ccc4[nH]c(C)cc4c3F)ncnc2cc1OCCCN1CCCC1 [CEDIRANIB]
inactive: Myosin-14 > 30 µM | [3] > 30 µM | [5] > 30 µM

Cn1c(=O)n(-c2ccc(C(C)(C)C#N)cc2)c2c3cc(-c4cnc5ccccc5c4)ccc3ncc21 [DACTOLISIB]
inactive: [1] > 30 µM | Myosin-14 > 30 µM | [2] > 30 µM | [3] > 30 µM | [4] > 30 µM | [5] > 30 µM | [7] > 30 µM | Insulin receptor > 30 µM | [8] > 30 µM | [9] > 30 µM

C[C@]1(O)C[C@@H](c2nc(-c3ccc4ccc(-c5ccccc5)nc4c3)c3c(N)nccn32)C1 [LINSITINIB]
inactive: [1] > 30 µM | Myosin-14 > 30 µM | [4] > 30 µM | [5] > 30 µM | [7] > 30 µM | [9] > 30 µM

N#CCNC(=O)c1ccc(-c2ccnc(Nc3ccc(N4CCOCC4)cc3)n2)cc1 [MOMELOTINIB]
active: [4] 0.79 µM | [9] 0.474 µM
inactive: Myosin-14 > 30 µM | [3] > 30 µM | [5] > 30 µM | [6] > 30 µM | [7] > 30 µM | Insulin receptor > 30 µM | [8] > 30 µM

CC1(C)CNc2cc(NC(=O)c3cccnc3NCc3ccncc3)ccc21 [MOTESANIB]
inactive: [3] > 30 µM | [5] > 30 µM

CN(c1ncccc1CNc1nc(Nc2ccc3c(c2)CC(=O)N3)ncc1C(F)(F)F)S(C)(=O)=O [PF-00562271]
inactive: [1] > 30 µM | Myosin-14 > 30 µM | [5] > 30 µM | [7] > 30 µM | [9] > 30 µM
active: [3] 1.51 µM

CC(C)CC(=O)Nc1[nH]nc2c1CN(C(=O)C1CCN(C)CC1)C2(C)C [PHA-793887]
active: [3] 2.56 µM
inactive: [1] > 30 µM | Myosin-14 > 30 µM | [2] > 30 µM | [4] > 30 µM | [5] > 30 µM | [6] > 30 µM | [7] > 30 µM | [8] > 30 µM | [9] > 30 µM

Cn1cnc2c(F)c(Nc3ccc(Br)cc3Cl)c(C(=O)NOCCO)cc21 [SELUMETINIB]
inactive: Myosin-14 > 30 µM | [3] > 30 µM | [5] > 30 µM

COc1cc2c(N3CCN(C(=O)Nc4ccc(OC(C)C)cc4)CC3)ncnc2cc1OCCCN1CCCCC1 [TANDUTINIB]
inactive: Myosin-14 > 30 µM | [5] > 30 µM
